Data as given in paper PMC9875641, “Ophthalmic Solution of Smart Supramolecular Peptides to Capture Semaphorin 4D against Diabetic Retinopathy” (Advanced Science, 2022).
Where a SMILES comes first, the peptide text is derived from it.

Target: T1, sSema 4D (Homo sapiens, UniProt Q92854)
T1 construct: purchased Novoprotein Ltd. (Suzhou, China)
T1 sequence (Q92854 22-734 limits assumed): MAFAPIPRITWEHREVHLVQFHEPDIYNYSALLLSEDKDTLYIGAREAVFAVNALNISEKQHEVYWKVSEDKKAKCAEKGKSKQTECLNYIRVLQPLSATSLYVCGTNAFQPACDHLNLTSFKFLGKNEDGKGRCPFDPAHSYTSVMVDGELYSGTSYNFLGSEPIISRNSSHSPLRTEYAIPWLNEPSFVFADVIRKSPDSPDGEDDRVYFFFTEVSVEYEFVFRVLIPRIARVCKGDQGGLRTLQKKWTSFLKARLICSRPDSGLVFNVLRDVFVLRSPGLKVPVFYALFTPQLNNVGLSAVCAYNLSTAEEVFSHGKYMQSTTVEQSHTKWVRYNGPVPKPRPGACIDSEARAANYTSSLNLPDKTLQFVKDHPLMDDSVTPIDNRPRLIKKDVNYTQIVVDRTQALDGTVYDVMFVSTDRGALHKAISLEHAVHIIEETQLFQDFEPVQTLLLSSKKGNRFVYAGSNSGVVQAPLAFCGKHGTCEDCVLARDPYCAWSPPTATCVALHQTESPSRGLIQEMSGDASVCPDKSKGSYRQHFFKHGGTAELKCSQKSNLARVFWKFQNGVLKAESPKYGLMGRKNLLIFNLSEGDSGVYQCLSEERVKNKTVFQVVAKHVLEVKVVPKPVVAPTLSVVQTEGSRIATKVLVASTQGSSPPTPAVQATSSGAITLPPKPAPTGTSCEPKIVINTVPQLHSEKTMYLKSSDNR
Assay: SPRi binding affinity of TPs to sSema 4D
Details: SPRi (surface plasmon resonance imaging)
Protocol: To carry out the library screening, we first labeled the sSema4D with fluorescein isothiocyanate isomer (FITC), as shown in Figure 2E. Next, ≈10^6 beads library was incubated with FITC‐labeled sSema4D for 6 hours. The beads were thoroughly washed with DMF, water and methanol. Finally, under the fluorescence microscope, the beads with […] to sSema4D or FITC‐labeled sSema4D through noncovalent bonding were identified in Figure 2F. We selected twelve strongest putative fluorescent beads by physical separation. Subsequently, the corresponding peptides were cleaved off with BrCN from beads and analyzed by automatic Edman sequencing. The structures and sequence of transformable peptides (TPs) were determined and summarized (Figure S2, Supporting Information). TP‐1 to TP‐12 were resynthesized into solid phase and purified by high performance liquid chromatography (HPLC). The binding affinity of TPs toward sSema 4D was measured by enzyme‐linked immunosorbent assay (ELISA) and surface plasmon resonance imaging (SPRi). […] TP‐2 and TP‐7 were selected as the candidate TP binding sSema 4D to construct SSP. Subsequent SSP monomers (SSP‐1, sequence: C16‐FFVLK‐KQKRPRH; SSP‐2 C16‐FFVLK‐KNKAAKG) were synthesized and characterized by HPLC and Matrix‐assisted laser desorption/ionization time‐of‐flight mass spectrometry (MALDI‐TOF‐MS).

SMILES | Kd [nM]
N=C(N)NCCC[C@H](NC(=O)[C@@H]1CCCN1C(=O)[C@H](CCCNC(=N)N)NC(=O)[C@H](CCCCN)NC(=O)[C@H](CCC(N)=O)NC(=O)[C@@H](N)CCCCN)C(=O)N[C@@H](Cc1c[nH]cn1)C(=O)O [TP-7] (H-KQKRPRH-OH) | 14.6
C[C@H](NC(=O)[C@H](C)NC(=O)[C@H](CCCCN)NC(=O)[C@H](CC(N)=O)NC(=O)[C@@H](N)CCCCN)C(=O)N[C@@H](CCCCN)C(=O)NCC(=O)O [TP-2] (H-KNKAAKG-OH) | 41.7
CC(C)[C@H](NC(=O)[C@H](CCCNC(=N)N)NC(=O)[C@H](C)NC(=O)[C@@H]1CCCN1C(=O)[C@H](C)NC(=O)[C@@H](N)CCCCN)C(=O)NCC(=O)O [TP-10] (H-KAPARVG-OH) | 64
